Source: patent publication US11638427B2, “Methods and compositions for altering secondary metabolites in plants” (Impello Biosciences, Inc, priority 2020, dated 2023)

Columns and labels:
oyster mushroom = assay: Fungal plug growth on jasmonate-infused PDA plates; type: cell-based; settings: all concentrations (1 mM, 4.25 mM, 10 mM) in PDA; 72 hours and 10 days
Method: (§1) MDJ (TCI, CAS No.: 24851-98-7) and CJ were infused into potato dextrose agar (PDA, VWR Cat No.: 90003-494) petri dishes (100×15 mm VWR, Cat No: 25384-094) at concentrations ranging from 1 mM, 4.25 mM, and 10 mM. Each treatment was prepared using a technical grade stock solution of pure chemical (CJ or MDJ) diluted with TWEEN®-20 (VWR, CAS No.: […]). Culturable oyster mushroom and seedling mold served to create fungal mycelial plugs using a sterile 1 mL pipette tip (Eppendorf, Cat No.: 022491458) held upside down. The tips were used to make circle excisions (i.e., fungal plugs) from a mycelial mat grown on PDA with no biochemical infusions. Fungal pugs were then transferred to PDA infused with varying concentrations of CJ or MDJ, and control plates (no CJ or MDJ infusion) to monitor fungal growth at room temperature over time.

[1] = test system: Pencicillium sclerotigenum; assay: Mold growth on jasmonate-infused plates, mold isolated from sweet potato; type: cell-based; settings: 1 mM, 5 mM, 10 mM, or 20 mM in plates
Method: as §1
Based on the above results in Cannabis spp., additional fungi from various crops was sampled and tested. Plates comprising various concentrations of MDJ or MJ were prepared as described above.

In the case of `CCCCCC1C(=O)CCC1CC(=O)OC` (centres unmarked) [MDJ, methyl dihydrojasmonate], the “Oyster mushroom fungal growth compared to control” value (oyster mushroom) is reported as “showed inhibition” and the “growth of mold isolated from sweet potato” value [1] is reported as “effective at preventing the growth”.
